The source made the active and inactive calls. The rule behind the calls is not given here.
How the values were obtained:
[1] = molecular target: Small ribosomal subunit protein eS6 (Homo sapiens) (UniProt P62753); assay: Binding affinity to RPS6 in human HeLa cells assessed as stabilization of protein at 100 uM at 70 degreeC by cellular thermal shift assay; assay type: cell-based
[2] = test system: HeLa; assay: Inhibition of cell migration in human HeLa cells incubated for 48 hrs by scratch wound healing assay; assay type: functional, cell-based
[3] = molecular target: Small ribosomal subunit protein eS6 (Homo sapiens) (UniProt P62753); assay: Inhibition of RPS6 in human HeLa cells assessed as downregulation of RPS6 phosphorylation at 2 to 8 uM incubated for 48 hrs by Western blot analysis; assay type: cell-based; conditions: dose 2-8 µM
[4] = test system: HeLa; assay: Induction of autophagy in human HeLa cells assessed as upregulation of LC3 expression incubated for 48 hrs by immunofluorescence assay; assay type: functional, cell-based
[5] = test system: HeLa; assay: Antitumor activity against human HeLa cells xenografted in BALB/c mouse assessed as necrotic cells in tumor at 15 to 60 mg/kg,ip once daily for 14 days; assay type: functional, organism-based; conditions: dose 15-60 mg/kg, time 14.0 day
[6] = test system: HeLa; assay: Induction of endoplasmic reticulum (ER) stress in human HeLa cells assessed as increase in red fluorescence intensity at 2 to 8 uM incubated for 48 hrs by ER-tracker red dye based fluorescence microscopic analysis; assay type: functional, cell-based; conditions: dose 2-8 µM
[7] = test system: HeLa; assay: Induction of autophagy in human HeLa cells with siRNA-mediated RPS6 knockdown assessed as upregulation of Beclin-1 expression at 4 uM incubated for 48 hrs by Western blot analysis; assay type: functional, cell-based
[8] = test system: HeLa; assay: Induction of autophagy in human HeLa cells assessed as upregulation of LC3 expression at 2 to 8 uM incubated for 48 hrs by Western blot analysis; assay type: functional, cell-based; conditions: dose 2-8 µM
[9] = test system: HeLa; assay: Antitumor activity against human HeLa cells xenografted in BALB/c mouse assessed as reduction in tumor volume at 15 to 60 mg/kg,ip once daily for 14 days; assay type: functional, organism-based; conditions: dose 15-60 mg/kg, time 14.0 day
[10] = test system: Cell membrane; assay: Disruption of lysosomal membrane in human HeLa cells assessed as decrease in fluorescence intensity at 2 to 8 uM incubated for 48 hrs by lyso-tracker red dye based fluorescence microscopic analysis; assay type: cell membranes; conditions: dose 2-8 µM
[11] = test system: HeLa; assay: Induction of autophagy in human HeLa cells assessed as downregulation of mTOR phosphorylation at 2 to 8 uM incubated for 48 hrs by Western blot analysis; assay type: functional, cell-based; conditions: dose 2-8 µM
[12] = test system: HeLa; assay: Induction of autophagy in human HeLa cells assessed as increase in number of autophagosomes incubated for 48 hrs by transmission electron microscopic analysis; assay type: functional, cell-based
[13] = test system: HeLa; assay: Induction of cell cycle arrest in human HeLa cells at 2 to 8 uM; assay type: functional, cell-based; conditions: dose 2-8 µM
[14] = test system: Cell membrane; assay: Disruption of mitochondrial membrane in human HeLa cells assessed as decrease in fluorescence intensity at 2 to 8 uM incubated for 48 hrs by mito-tracker green dye based fluorescence microscopic analysis; assay type: cell membranes; conditions: dose 2-8 µM
[15] = test system: HeLa; assay: Induction of autophagy in human HeLa cells assessed as upregulation of Beclin-1 expression incubated for 48 hrs by immunofluorescence assay; assay type: functional, cell-based
[16] = molecular target: Small ribosomal subunit protein eS6 (Homo sapiens) (UniProt P62753); assay: Inhibition of RPS6 in human HeLa cells assessed as downregulation of RPS6 expression at 2 to 8 uM incubated for 48 hrs by Western blot analysis; assay type: cell-based; conditions: dose 2-8 µM
[17] = test system: HeLa; assay: Inhibition of colony formation in human HeLa cells at 2 to 8 uM incubated for 2 weeks by crystal violet staining based microscopic analysis; assay type: functional, cell-based; conditions: dose 2-8 µM
[18] = test system: HeLa; assay: Induction of autophagy in human HeLa cells assessed as downregulation of PI3K phosphorylation at 2 to 8 uM incubated for 48 hrs by Western blot analysis; assay type: functional, cell-based; conditions: dose 2-8 µM
[19] = test system: HeLa; assay: Induction of autophagy in human HeLa cells assessed as downregulation of AKT phosphorylation at 2 to 8 uM incubated for 48 hrs by Western blot analysis; assay type: functional, cell-based; conditions: dose 2-8 µM
[20] = test system: Cell membrane; assay: Induction of mitochondrial membrane potential loss in human HeLa cells assessed as increase in green fluorescence at 2 to 8 uM incubated for 48 hrs by JC-1 staining based flow cytometry; conditions: dose 2-8 µM
[21] = test system: HeLa; assay: Induction of autophagy in human HeLa cells assessed as downregulation of SQSTM1/p62 expression at 2 to 8 uM incubated for 48 hrs by Western blot analysis; assay type: functional, cell-based; conditions: dose 2-8 µM
[22] = test system: HeLa; assay: Induction of apoptosis in human HeLa cells assessed as upregulation of cleaved caspase-3 expression incubated for 48 hrs by Western blot analysis; assay type: functional, cell-based
[23] = test system: HeLa; assay: Induction of autophagy in human HeLa cells with siRNA-mediated RPS6 knockdown assessed as downregulation of SQSTM1/p62 expression at 4 uM incubated for 48 hrs by Western blot analysis; assay type: functional, cell-based
[24] = test system: HeLa; assay: Induction of autophagy in human HeLa cells assessed as downregulation of PI3K expression at 2 to 8 uM incubated for 48 hrs by Western blot analysis; assay type: functional, cell-based; conditions: dose 2-8 µM
[25] = test system: HeLa; assay: Induction of autophagy in human HeLa cells assessed as downregulation of AKT expression at 2 to 8 uM incubated for 48 hrs by Western blot analysis; assay type: functional, cell-based; conditions: dose 2-8 µM
[26] = test system: HeLa; assay: Induction of autophagy in human HeLa cells assessed as increase in number of MDC-positive cells incubated for 48 hrs by MDC staining based fluorescence microscopic analysis; assay type: functional, cell-based
[27] = test system: HeLa; assay: Antitumor activity against human HeLa cells xenografted in BALB/c mouse assessed as reduction in tumor weight at 15 to 60 mg/kg,ip once daily for 14 days; assay type: functional, organism-based; conditions: dose 15-60 mg/kg, time 14.0 day
[28] = test system: HeLa; assay: Induction of autophagy in human HeLa cells assessed as downregulation of mTOR expression at 2 to 8 uM incubated for 48 hrs by Western blot analysis; assay type: functional, cell-based; conditions: dose 2-8 µM
[29] = test system: HeLa; assay: Induction of autophagy in human HeLa cells with siRNA-mediated RPS6 knockdown assessed as upregulation of LC3 expression at 4 uM incubated for 48 hrs by Western blot analysis; assay type: functional, cell-based
[30] = test system: HeLa; assay: Induction of autophagy in human HeLa cells assessed as upregulation of Beclin-1 expression at 2 to 8 uM incubated for 48 hrs by Western blot analysis; assay type: functional, cell-based; conditions: dose 2-8 µM
[31] = molecular target: Small ribosomal subunit protein eS6 (Homo sapiens) (UniProt P62753); assay: Binding affinity to RPS6 in human HeLa cells assessed as increase in protein abundance in presence of pronase by DARTS assay; assay type: cell-based
[32] = test system: HeLa; assay: Induction of apoptosis in human HeLa cells assessed as upregulation of cleaved PARP expression incubated for 48 hrs by Western blot analysis; assay type: functional, cell-based
[33] = test system: HeLa; assay: Induction of apoptosis in human HeLa cells assessed as upregulation of Bax expression incubated for 48 hrs by Western blot analysis; assay type: functional, cell-based
[34] = test system: Cell membrane; assay: Induction of mitochondrial membrane potential loss in human HeLa cells assessed as decrease in red fluorescence at 2 to 8 uM incubated for 48 hrs by JC-1 staining based flow cytometry; conditions: dose 2-8 µM
[35] = test system: HeLa; assay: Induction of apoptosis in human HeLa cells assessed as upregulation of p53 expression incubated for 48 hrs by Western blot analysis; assay type: functional, cell-based
[36] = test system: HeLa; assay: Inhibition of cell invasion in human HeLa cells at 2 to 8 uM incubated for 48 hrs by crystal violet staining based transwell invasion assay; assay type: functional; conditions: dose 2-8 µM

Q: What does the source list for CCOC(=O)C[C@H]1CSC[C@]1(C(=O)OCC)n1cnc2c(Cl)nc(Cl)nc21 (racemic)?
A: Activity [1]: Active; inhibition [2]: Dose-Dependent Effect; inhibition [3]: Active; Activity [4]: Active; Activity [5]: Active; Activity [6]: Active; Activity [7]: Active; Activity [8]: Active; Activity [9]: Active; Activity [10]: Active; Activity [11]: Active; Activity [12]: Dose-Dependent Effect; Activity [13]: inactive; Activity [14]: Active; Activity [15]: Active; inhibition [16]: Active; inhibition [17]: Active; Activity [18]: Active; Activity [19]: Active; Activity [20]: Active; Activity [21]: Active; Activity [22]: Dose-Dependent Effect; Activity [23]: Active; Activity [24]: Active; Activity [25]: Active; Activity [26]: Dose-Dependent Effect; Activity [27]: Active; Activity [28]: Active; Activity [29]: Active; Activity [30]: Active; Activity [31]: Active; Activity [32]: Dose-Dependent Effect; Activity [33]: Dose-Dependent Effect; Activity [34]: Active; Activity [35]: Dose-Dependent Effect; inhibition [36]: Active
